For this assay, the target named is Beta-glucuronidase (Escherichia coli (strain K12), UniProt P05804). The assay is described as follows: β-Glucuronidase Activity Assay.

The structures appear in SMILES notation.

Sequence of Beta-glucuronidase (P05804 whole entry): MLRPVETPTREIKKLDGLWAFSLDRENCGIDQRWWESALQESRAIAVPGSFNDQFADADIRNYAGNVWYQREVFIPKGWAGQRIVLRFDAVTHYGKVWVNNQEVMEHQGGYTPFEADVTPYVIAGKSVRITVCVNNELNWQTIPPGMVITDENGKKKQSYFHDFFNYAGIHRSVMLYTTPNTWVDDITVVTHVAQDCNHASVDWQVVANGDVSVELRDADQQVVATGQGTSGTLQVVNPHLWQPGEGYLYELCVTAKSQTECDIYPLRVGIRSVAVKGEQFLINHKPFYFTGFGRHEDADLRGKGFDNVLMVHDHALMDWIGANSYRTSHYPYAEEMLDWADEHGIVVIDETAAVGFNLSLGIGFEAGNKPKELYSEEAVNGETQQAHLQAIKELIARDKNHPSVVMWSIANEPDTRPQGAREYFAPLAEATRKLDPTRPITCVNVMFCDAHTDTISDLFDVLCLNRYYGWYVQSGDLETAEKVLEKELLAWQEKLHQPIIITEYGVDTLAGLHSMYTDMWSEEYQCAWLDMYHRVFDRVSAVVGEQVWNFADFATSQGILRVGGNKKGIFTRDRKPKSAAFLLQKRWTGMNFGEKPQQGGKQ
Experimental: The β-glucuronidase assay was performed by the addition of 0.5 μl of compound (or DMSO) to the well of a black 384-well plate followed by the addition of 30 μl of diluted β-glucuronidase enzyme. […] After a 30 minute incubation at room temperature, the reaction was stopped by the addition of 20 ul 1 M Na2CO3. […] Minimum (min) controls were performed using reactions with no enzyme. Maximum (max) controls were performed using no compound. 1% DMSO was maintained in all reactions. Percent inhibition was calculated using RFU data by the following formula: [1−(assay readout-average of min)/(Average of Max-Average of Min)]×100

Turning to `O=S(=O)(NCc1cccc2ccccc12)c1cc(Cl)c(Oc2ccc3c(c2)OCO3)s1` [US9617239, BRITE-355233], it took 376 µM to reach half-maximal inhibition (IC50).
